Read-outs that look alike come from different tables or passages of the source. Marks after values point to notes of the source that are not given here.
What was measured:
[1] = Lipid peroxide levels in DLPC multilamellar vesicles, C/P 0.2 (triiodide assay); assay type: biochemical; details: for Lipid Peroxide Levels: mean ± S.D.
Method: The levels of lipid peroxide formation were measured photometrically at specific time points. […] Samples were prepared in a glass test tube as described in the table above. […] Sample tubes were vortexed for 3 min to form MLVs. This assay is based on the principle of the oxidative capacity of lipid peroxides to convert […], which can be measured photometrically at […] (El-Saadani et al., 1989). […] Samples were placed in a water bath set at 37° C. Samples remained in the water bath throughout the experiment except for the temporary removal for time point extractions. • 2. […] • 3. After combining sample time point aliquots with CHOD active reagent and the diffraction buffer as described in the table above, test samples were incubated about 6 hours in darkness at ambient temperature. • 4. The absorbance ([…] nm) of the samples was measured using a spectrophotometer. • 5. […] This value was determined by adding known concentrations of I2 to the CHOD reagent. A stoichiometric relationship (slope=1.02) was observed between the amount of organic peroxides assayed and the concentration of I3^- produced.

[2] = Lipid peroxide (LOOH) formation in DAPC lipid vesicles with cholesterol (triiodide assay); assay type: biochemical
Method: The ability of astaxanthin to block the pro-oxidant effects of rofecoxib was tested in lipid vesicles reconstituted from DAPC (10 mg/ml) in physiologic buffer (0.5 mM HEPES, 154 mM NaCl, pH=7.32). The lipid vesicles also contained cholesterol at a level that reproduced physiologic conditions (0.2 cholesterol to phospholipid mole ratio). The drug effects were tested in the vesicles following addition of astaxanthin, rofecoxib or the combination of these two agents at an identical concentration (250 nM). To measure lipid peroxide (LOOH) formation, we used an assay that measures the conversion of I2 to I3^− (triiodide). This reaction takes place in the presence of LOOH in a manner that can be measured photometrically at 365 nm, El-Saadani, 1989. […] The lipid peroxidation reaction occurs gradually under normal atmospheric oxygen conditions in a shaking water bath (37° C.).

[3] = Peroxidation study in DLPC multilamellar vesicles, C/P 0.6; assay type: biochemical; details: C/P 0.6, carotenoid 10 μM, 48 hour
Method: 1. Samples were prepared in a glass test tube as described in the table above. This gives a cholesterol/DLPC mole ratio of 0.6 and a final concentration of 10 μM for the carotenoids. Equal volumes of vehicle (20 μl chloroform) were added to control samples. 2. All samples were dried down under a steady stream of nitrogen gas while vortexing. 3. Samples were placed in a vacuum desiccator for 2 hours to remove residual solvent and protected from light. 4. Multi-lamellar vesicles (MLVs) were prepared by the method developed by Bangham and Standish (1965). After samples were removed from the vacuum desiccator, they were immediately resuspended in 1 ml of diffraction buffer warmed to room temperature and vortexed for 3 minutes to form MLVs.
This assay is based on the principle of the oxidative capacity of lipid peroxides to convert I2 to I3^− (triiodide), which can be measured photometrically at 365 nm (el-Saadani et al., 1989). This assay is sensitive to peroxide concentrations as low as 10 μM.
1. Samples were placed in a water bath set at 37° C. throughout the experiment. 2. Aliquots of a sample (20 μl) were extracted at a 48 hour time point as described in the table below.
3. After combining the samples with CHOD active reagent and the diffraction buffer, test samples were incubated for about 6 hours in darkness at ambient temperature. 4. The absorbance of a sample was measured photometrically at 365 nm.
Concentrations of lipid peroxides were calculated by the use of the molar absorptivity of I3^− measured at 365 nm (ε=2.46±0.25×10^4M^−1 cm^−1). This value was determined by adding known concentrations of […] to the CHOD reagent. A stoichiometric relationship (slope=1.02) was observed between the amount of organic peroxides assayed and the concentration of I3^− produced.

[4] = F2-isoprostane formation from DAPC lipid vesicles by GC/NCI-MS; assay type: biochemical; details: 100 nM; vehicle 140±25 ng/100 μl; mean ± S.D.
Method: F2-Isoprostanes are derived principally from the formation of positioned peroxyl radical isomers of arachidonic acid, endocyclization to protaglandin G2-like structures, and reduction to PGF2-like compounds. Total levels of F2-isoprostanes, in DAPC lipid vesicles prepared in the presence of vehicle or drug, were measured by GC-MS with negative chemical ionization as described by Walter et al., 2000. Peroxidation of lipids occurred over time in the absence of any exogenous initiators at 37° C. F2-Isoprostane formation was also measured independently using mass spectroscopy in a blinded study at the Antioxidant Research Laboratory, Tufts University, Boston, Mass.

human LDL [5] = test: Conjugated diene formation in isolated human LDL (CuSO4-induced oxidation); assay type: biochemical; details: 100 nM
Method: (§1) The effects of the compounds on lipid peroxidation were tested in isolated human LDL. Human venous blood was collected into vacutainer tubes containing K3EDTA after a 12-hour fast. Plasma was immediately separated by centrifugation at 3000 g for 25 minutes. LDL was obtained from plasma by ultracentrifugation using a procedure similar to that reported by Chung et al, 1986 using discontinuous KBr gradient. The purity of the freshly isolated LDL was assessed by SDS-PAGE using the procedure of Laemmli, 1970.
(§2) The extent of oxidation was measured for the LDL in the absence and presence of the drugs over a range of concentrations. Malondialdehyde (MDA), a product of lipid oxidation, was measured by the reaction of this aldehyde with thiobarbituric acid in an acid medium to form a stable chromogen, referred to as thiobarbituric-acid-reactive-substances (TBARS). Purified LDL (100 μg protein/ml) was incubated for 30 minutes with either vehicle or an NSAID at various concentrations followed by addition of 50 μM CuSO4 at 37° C. Conjugated diene formation was measured by continuously monitoring the change in absorbance at 234 nm on a Beckman DU 640 spectrophotometer, as described by Esterbauer et al., 1985. Stock solutions were tested for iron contamination, which can contribute independently to lipid peroxidation and assay artifacts.

[6] = Oxygen Radical Absorption Capacity (ORAC) of human plasma; assay type: biochemical; details: 1.0 μM
Method: The comparative effect of COX-2 selective agents on the antioxidant capacity of human plasma was assessed using the Oxygen Radical Absorption Capacity (ORAC) assay. This assay was carried out according to the method of Huang et al., 2002 with fresh plasma using a microplate fluorescence reader in 96 well format with the excitation and emission filters set at 485 and 530 nm respectively.

human LDL [7] = test: MDA formation (TBARS) in isolated human LDL; assay type: biochemical
Method: as §1, §2

[8] = assay type: physicochemical
Method: (§3) Determination of aqueous solubility/dispersibility. 30.13 mg of 3 was added to 1 mL of USP-purified water. The sample was rotated for 2 hours, then centrifuged for 5 minutes. After centrifuging, solid was visible in the bottom of the tube. A 125-μL aliquot of the solution was then diluted to 25 mL. The sample was analyzed by UV/Vis spectroscopy at 436 nm, and the absorbance was compared to a standard curve compiled from 4 standards of known concentration. The concentration of the original supernatant was calculated to be 2.85 mg/mL and the absorptivity was 36.94 AU*mL/cm*mg. Slight error may have been introduced by the small size of the original aliquot.
as §3, with “Next, 30.80” for “Determination of aqueous solubility/dispersibility. 30.13”, “9” for “3”, “411” for “436”, “The concentration of the original supernatant was calculated to be 2.85 mg/mL and the absorptivity was 36.94 AU*mL/cm*mg.” left out

[9] = test system: superoxide anion generation from phorbol-ester (PMA)-stimulated PMNs; test: Direct superoxide anion scavenging by EPR spectroscopy (DEPMPO spin trap), isolated human neutrophil assay; assay type: cell-based
Method: Leukocyte Isolation and Preparation. Human polymorphonuclear leukocytes (PMNs) were isolated from freshly sampled venous blood of a single volunteer by Percoll density gradient centrifugation as described previously. Briefly, each 10 mL of whole blood was mixed with 0.8 mL of 0.1 M EDTA and 25 mL of saline. The diluted blood was then layered over 9 mL of Percoll at a specific density of 1.080 g/mL. After centrifugation at 400×g for 20 min at 20° C., the plasma, mononuclear cell, and Percoll layers were removed. Erythrocytes were subsequently lysed by addition of 18 mL of ice-cold water for 30 s, followed by 2 mL of 10×PIPES buffer (25 mM PIPES, 110 mM NaCl, and 5 mM KCl, titrated to pH 7.4 with NaOH). Cells were then pelleted at 4° C., the supernatant was decanted, and the procedure was repeated. After the second hypotonic cell lysis, cells were washed twice with PAG buffer [PIPES buffer containing 0.003% human serum albumin (HSA) and 0.1% glucose]. Afterward, PMNs were counted by light microscopy on a hemocytometer. The isolation yielded PMNs with a purity of >95%. The final pellet was then suspended in PAG-CM buffer (PAG buffer with 1 mM CaCl2 and 1 mM MgCl2).
EPR Measurements. All EPR measurements were performed using a Bruker ER 300 EPR spectrometer operating at X-band with a TM110 cavity as previously described. The microwave frequency was measured with a Model 575 microwave counter (EIP Microwave, Inc., San Jose, Calif.). To measure superoxide anion ? generation from phorbol-ester (PMA)-stimulated PMNs, EPR spin-trapping studies were performed using the spin trap DEPMPO (Oxis, Portland, Oreg.) at 10 mM. 1×10^6 PMNs were stimulated with PMA (1 ng/mL) and loaded into capillary tubes for EPR measurements. To determine the radical scavenging ability of 3 and 9 in aqueous and ethanolic formulations, PMNs were pre-incubated for 5 minutes with test compound, followed by PMA stimulation.
Instrument settings used in the spin-trapping experiments were as follows: modulation amplitude, 0.32 G; time constant, 0.16 s; scan time, 60 s; modulation frequency, 100 kHz; microwave power, 20 milliwatts; and microwave frequency, 9.76 GHz. The samples were placed in a quartz EPR flat cell, and spectra were recorded. The component signals in the spectra were identified and quantified as reported previously.

[10] = alone at 250 nM, 48 hour incubation at 37° C.

Compound: CC1=C(/C=C/C(C)=C/C=C/C(C)=C/C=C/C=C(C)/C=C/C=C(C)/C=C/C2=C(C)C(=O)[C@@H](O)CC2(C)C)C(C)(C)C[C@H](O)C1=O [Astaxanthin, 3,3′-dihydroxy-β,β′-carotene-4,4′-dione]
- % increase (+) or decrease (−) of lipid peroxide levels compared to control ([1]; 24 Hour, carotenoid 1 μM): −6.9%^a
- Lipid Peroxide Levels ([1]; 24 Hour, carotenoid 1 μM, control 218 ± 20): 203 ± 17 µM
- % increase (+) or decrease (−) of lipid peroxide levels compared to control ([1]; 24 Hour, carotenoid 10 μM): −22.5%
- Lipid Peroxide Levels ([1]; 24 Hour, carotenoid 10 μM, control 218 ± 20): 169 ± 7 µM
- % increase (+) or decrease (−) of lipid peroxide levels compared to control ([1]; 48 Hour, carotenoid 1 μM): −12.6%^a
- Lipid Peroxide Levels ([1]; 48 Hour, carotenoid 1 μM, control 572 ± 76): 500 ± 57 µM
- % increase (+) or decrease (−) of lipid peroxide levels compared to control ([1]; 48 Hour, carotenoid 10 μM): −40.7%^a
- Lipid Peroxide Levels ([1]; 48 Hour, carotenoid 10 μM, control 572 ± 76): 339 ± 42 µM
- antioxidant/pro-oxidant effect ([1]; C/P 0.2): strong antioxidant effect
- decrease in lipid peroxidation vs control ([2]; added together with rofecoxib at equimolar concentration (250 nM)): 6.5%
- decrease in lipid peroxidation vs control [2, 10]: 4.4%
- antioxidant/prooxidant activity [3]: the only antioxidant

Compound: CS(=O)(=O)c1ccc(C2=C(c3ccccc3)C(=O)OC2)cc1 [rofecoxib]
- Levels of isoprostanes [4]: 190±18 ng/100 μl
- decrease in lag time for human LDL conjugated diene formation (human LDL [5]): 42.8±1.5%
- increase in lipid peroxide levels vs control [2, 10]: 7.4%
- reduction of ORAC value ([6]; fresh human plasma): 34%
- ORAC value (AUC) ([6]; vehicle 28.1±1.2): 18.6±1.3
- effect on MDA levels (TBARS) in human LDL (human LDL [7]): marked increases
- effect on MDA levels (TBARS) in human LDL (human LDL [7]; 50 nM, 10-fold lower than comparison drugs): significant increase

Compound: β,ε-carotenyl 3,3′-disuccinate sodium salt [Lutein Disuccinate Sodium Salt]
- aqueous solubility/dispersibility [8]: 2850 µg/mL
- Mean (% inhibition) of superoxide anion signal ([9]; 40% EtOH, 0.1 mM, listed as disodium disuccinate derivative of natural source lutein, sodium salt): did not significantly increase scavenging
- Mean (% inhibition) of superoxide anion signal ([9]; 40% EtOH, 0.1 mM, sodium salt): 5.0%
- Mean (% inhibition) of superoxide anion signal ([9]; Water, 0.1 mM): 0%
- Mean (% inhibition) of superoxide anion signal ([9]; Water, 1.0 mM): 13.0%
- Mean (% inhibition) of superoxide anion signal ([9]; Water, 3.0 mM): 61.7%
- Mean (% inhibition) of superoxide anion signal ([9]; Water, 5.0 mM, listed as disodium disuccinate derivative of natural source lutein, sodium salt): ~75%
- Mean (% inhibition) of superoxide anion signal ([9]; Water, 5.0 mM, listed as disuccinate lutein sodium salt, sodium salt): 75%
- Mean (% inhibition) of superoxide anion signal ([9]; Water, 5.0 mM, sodium salt): 74.7%

— patent publication US20080293679A1, “Use of carotenoids and/or carotenoid derivatives/analogs for reduction/inhibition of certain negative effects of COX inhibitors” (priority 2005, published 2008)
